Data from paper PMC12040169 (PLOS Biology, 2025).

Assay: in vitro
Details: human, hela cells, % viability

Structure (SMILES)	viability at 28.5 h, 10 µM
CCCc1cc(C(=O)N[C@@H]2CCOC[C@H]2Oc2ccc(CO)cc2)cs1 [CBK306700]	91.6%
CC(C)N(C(=O)c1ccccc1-c1cnc2nncn2c1)C(C)C [CBK306701]	99.8%
CN(Cc1nc2c(s1)CCCC2)C(=O)CCn1nnc2ccccc21 [CBK306704]	107%
O=C(NCc1csc2c1CCCC2)N1CCCC(c2cc(O)ncn2)C1 (stereo not shown) [CBK306705]	99.3%
O=C(NC1CCNC1)c1cccc(S(=O)(=O)NCc2ccsc2)c1 (stereo not shown) [CBK306706]	88%
COc1ccc2cc(C(=O)N3Cc4cnn(CCO)c4C3)n(C)c2c1 [CBK306707]	94.5%
CCC(O)c1cc2n(n1)CCN(C(=O)c1cn(-c3ccccc3)nn1)C2 (stereo not shown) [CBK306708]	93.7%
CCCCCN1CCn2nc(CNc3cnccn3)cc2C1 [CBK306713]	77.2%
Cn1nc(NC(=O)c2cnccn2)c2c(N3CCOCC3)cccc21 [CBK306716]	100%
Cc1cnn(-c2cc(N3CCC(n4cc(C5CC5)nn4)CC3)ncn2)c1 [CBK306721]	96.2%
Cc1nn(C)cc1-c1c(C#N)c(N)nc2c1CN(Cc1ccco1)CC2 [CBK306722]	90.4%
COCCN(Cc1cnn(C)c1)Cc1cc(O)c2cc(C)ccc2n1 [CBK306723]	86.1%
COCCNc1nc2c(c(N3CCCCCC3)n1)CCNCC2 [CBK306724]	104%
COc1cccn(CC(=O)N(C)CCc2scnc2C)c1=O [CBK306726]	94.2%
COc1ccc(CN(C)C2CCOCC2)cc1Cn1cncn1 [CBK306728]	93.9%
CCCS(=O)(=O)NC1CC(C)(C)Cc2c1cnn2-c1ccc(OC)cc1 (stereo not shown) [CBK306730]	103%
CSc1nc(C(=O)N2CCCCC2c2cccc(F)c2)cs1 (stereo not shown) [CBK306732]	108%
Cc1cc(C(F)(F)F)n(CC(C)CNC(=O)Cc2csc(C)n2)n1 (stereo not shown) [CBK306733]	87.8%
CCNC(=O)N1CCCC(Cc2ccc(F)cc2F)(C(=O)OCC)C1 (stereo not shown) [CBK306734]	81.9%
COCCc1nc(-c2csc(CN(C)C)n2)n(Cc2ccccc2C)n1 [CBK306735]	107%
CCc1nccn1CCCNC(=O)Nc1cccnc1 [CBK306736]	94.6%
CN(C)CC(O)c1cc2n(n1)CCCN(CC(=O)NCc1cccs1)C2 (stereo not shown) [CBK306738]	91.6%
c1cnn(CCNc2nc3nonc3nc2N2CCCCC2)c1 [CBK306740]	83.8%

Structure (SMILES)	viability at 28.5 h, 10 µM
COc1ccc(C(NC(=O)c2cn3ccsc3n2)[C@H]2C[C@H](O)C2)cn1 (stereo partly shown) [CBK306744]	101%
Cc1ccc(Cl)cc1C(=O)N[C@H]1C[C@@H](c2nnc(CO)n2C2CC2)C1 [CBK306746]	92.8%
Cn1ncc(N2CCC(CNC(=O)c3ccccc3Cl)C2)cc1=O (stereo not shown) [CBK306747]	95.2%
Cc1cc(C(=O)N2CCC(c3nnc(CN(C)C)n3C)CC2)ccc1F [CBK306748]	95.5%
CCOC(=O)C1CCCN(Cc2nc(-c3ccc(F)cc3F)oc2C)C1 (stereo not shown) [CBK306749]	94.3%
CN1CCN(Cc2ccc(-c3ccc(C(N)=O)cc3)nc2)CC1 [CBK306750]	87.3%
Cc1c(C(=O)N2CCCCC2CN2CCOCC2)[nH]c2c(F)cccc12 (stereo not shown) [CBK306751]	105%
CCCN1CCC(NC(=O)c2cc(COc3cccc(F)c3)[nH]n2)CC1 [CBK306753]	88.5%
COC1CCN(S(=O)(=O)c2cc(-n3cccn3)ccc2C)C1 (stereo not shown) [CBK306757]	92.8%
COc1cc(C)cc(OC)c1-c1ncnc(C)c1C [CBK306762]	85.7%
O=C(CN1CCCCCC1=O)NCC(CO)Cc1ccsc1 (stereo not shown) [CBK306763]	118%
COc1ccc2c(c1)c(C(=O)N1CCn3nc(CO)cc3C1)c(C)n2C [CBK306764]	88.5%
CN(CCCc1cnn(C)c1)c1nc(N)nc2c1CCCC2 [CBK306766]	96.5%
O=C(O)C1(Oc2ccc3ccccc3c2)CCN(CC2CCOC2)CC1 (stereo not shown) [CBK306767]	91.4%
CN(Cc1ncc[nH]1)C(=O)c1cn(Cc2cccc(C(F)(F)F)c2)nn1 [CBK306768]	84.4%
CCN(CCN1CCOCC1)C(=O)c1[nH]c2c(F)cccc2c1C [CBK306772]	90.3%
COc1cccc(CN2CCCC(NC(=O)c3ccccc3Cl)C2)c1 (stereo not shown) [CBK306774]	117%
CCc1c(C)nc(C)nc1N1CCCn2nc(C(O)C3CC3)cc2C1 (stereo not shown) [CBK306778]	100%
Cn1c(N2CC[C@H](O)C2)nc2cc(C(=O)NC3CCCC3)ccc21 [CBK306779]	97.6%
CCCc1nnc2sc(C3CCCN(C(C)C)C3)nn12 (stereo not shown) [CBK306781]	85.3%
CSCCC(=O)NC1CCCc2nc(N3CCC(CO)CC3)ncc21 (stereo not shown) [CBK306782]	91.3%
CCc1nc2c(N3CCC(n4nc(C)cc4C)C3)ncnc2o1 (stereo not shown) [CBK306785]	111%
CCCCC(c1cccnc1)N(C)C(=O)c1ccnc(-n2cnnc2)c1 (stereo not shown) [CBK306786]	84.2%

Structure (SMILES)	viability at 28.5 h, 10 µM
CC1(C#N)CCCN(C(=O)NC2CCN(Cc3cccc(O)c3)CC2)C1 (stereo not shown) [CBK306787]	88.2%
Cc1noc(C)c1CCC(=O)NC(Cc1ccncc1)C1CC(O)C1 (stereo not shown) [CBK306790]	91%
Cc1cnn(CCNc2cc(C(C)C)nc3ccnn23)c1 [CBK306792]	91.5%
CC(C)CN(Cc1cccs1)C(=O)c1cc2n(n1)CCCN(C)C2 [CBK306793]	102%
CCCNC(=O)c1ccc(C)c(NC(=O)NC2CCOC2)c1 (stereo not shown) [CBK306794]	95.8%
CCCc1nc(NC(c2cccc(C)n2)C2CC2)c2cnn(C)c2n1 (stereo not shown) [CBK306795]	88%
CCN(C(=O)Cn1c(C)cc(=O)c2ccccc21)C1CCOC(C)(C)C1 (stereo not shown) [CBK306797]	93.6%
CSCCCNC(=O)c1ccc2c(c1)nc(N1CC[C@H](O)C1)n2C [CBK306807]	107%
Cn1ncc(N2CCC(CNC(=O)COc3ccccc3)C2)cc1=O (stereo not shown) [CBK306810]	92.3%
Cc1cc(=O)c2ccccc2n1CC(=O)N1CCOC2(CCCC2)C1 [CBK306811]	93.5%
CCc1nccn1CCC(=O)NC1CCN(Cc2ccncc2)CC1 [CBK306813]	107%
Cn1cccc1CCC(=O)NC1CCN(Cc2ccccc2Cl)CC1 [CBK306814]	88.4%
Cc1cc(C(=O)NC(Cn2ccnc2)c2ccccc2)cc(=O)[nH]1 (stereo not shown) [CBK306818]	94%
O=C(c1cc(CO)ccn1)N(Cc1ccccn1)CC1CCCO1 (stereo not shown) [CBK306820]	97%
Cn1c(=O)oc2ccc(C(=O)N3CCn4nc(CO)cc4C3)cc21 [CBK306821]	85.6%
Nc1nc(NCCOc2ccccc2Cl)cc(C2CC(N)C2)n1 (stereo not shown) [CBK306825]	75.2%
Cc1nn(C)c2nc(NCc3ccc(C(=O)N4CCCCC4)cc3)sc12 [CBK306826]	86.6%
O=C(O)CC1COCCN1Cc1ccc(Cn2cccn2)cc1 (stereo not shown) [CBK306827]	89.1%
CCn1c(C)nnc1SCCNc1cc(C(C)C)nc2ccnn12 [CBK306829]	81.4%
Cn1nc(NC(=O)CN2CCOC2=O)c2c(N3CCOCC3)cccc21 [CBK306830]	102%
COc1ccc2cc(C(=O)N(CCO)Cc3ccc(C)s3)n(C)c2c1 [CBK306831]	116%
CCCN1CC(NS(=O)(=O)c2cc(-n3cccn3)ccc2C)CC1=O (stereo not shown) [CBK306835]	98.3%
Cc1ccc(CNC(=O)c2ccc3c(c2)nc(N2CC[C@H](O)C2)n3C)s1 [CBK306837]	90.9%

Structure (SMILES)	viability at 28.5 h, 10 µM
CNC(=O)c1cn2cc(-c3cccs3)n(CC3CC3)c(=O)c2n1 [CBK306838]	84%
COc1cc(NC(=O)CN2CCc3c(c(CO)nn3C)C2)cc(OC)c1 [CBK306841]	114%
COc1ccccc1CN(Cc1cccnc1)C(=O)CNC(C)=O [CBK306843]	96.2%
CCOc1ccc(NC(=O)N(Cc2ccccn2)CC2CCCO2)cc1 (stereo not shown) [CBK306847]	83.7%
COCCN(C)c1ccc(C(=O)N2CCC(N3CCOCC3)CC2)cn1 [CBK306851]	111%
Cn1nc(C(=O)N2Cc3cnn(Cc4ccc(F)cc4)c3C2)ccc1=O [CBK306855]	83%
COCCn1c(CO)nnc1[C@H]1C[C@@H](NC(=O)c2ccc(F)cc2C)C1 [CBK306856]	94.7%
Cc1[nH]c(=O)c(C#N)cc1C(=O)N(C)Cc1cc(-c2ccncc2)no1 [CBK306859]	113%
O=C(NC1CCC1)c1cn2cc(-c3cccs3)n(CC3CC3)c(=O)c2n1 [CBK306863]	82.9%
COc1cccc(C(=O)NCCC(=O)N2CCCC(c3ncc[nH]3)C2)c1 (stereo not shown) [CBK306864]	82.5%
CC(=O)Nc1cccc(C(=O)N(Cc2ccccn2)CC2CCCO2)c1 (stereo not shown) [CBK306867]	90.5%
Cc1cc(=O)c2ccccc2n1CC(=O)N1CCC2(CCOCC2)CC1 [CBK306869]	94.7%
COc1ncc(C(=O)NCc2cccnc2N(C)C2CCCCC2)cn1 [CBK306870]	91.8%
CCCC(C)c1cn(CCc2cc(O)nc(C)n2)nn1 (stereo not shown) [CBK306871]	93.8%
Cn1c(N2CC[C@H](O)C2)nc2cc(C(=O)NC3CCNCC3)ccc21 [CBK306873]	98.1%
Cc1cc(O)n2nc(CC(=O)NCCCn3ccnc3C(C)C)nc2n1 [CBK306876]	91.5%
Cc1c(C(=O)NCCN2CCCC(C(N)=O)C2)[nH]c2c(F)cccc12 (stereo not shown) [CBK306877]	81.7%
CCCCSc1nc(N)cc(N2CCC(C(=O)NCC)C2)n1 (stereo not shown) [CBK306880]	88.2%
O=C(NCCc1cccs1)Nc1cccc(CN2CCCCC2)c1 [CBK306882]	96.1%
COc1c(C)cc(-c2ncnc(C)c2C)cc1C [CBK306884]	67.6%
Cc1nc(C)c(C(=O)NCc2cccnc2N(C)C2CCCCC2)s1 [CBK306885]	95%
CN1CC2(CCCN(Cc3nnc(-c4cccnc4)o3)C2)OC1=O (stereo not shown) [CBK306888]	110%
